Measurements as given in ChEMBL document CHEMBL5252561, “Evaluation of darunavir-derived HIV-1 protease inhibitors incorporating P2' amide-derivatives: Synthesis, biological evaluation and structural studies” (Bioorg Med Chem Lett, 2023).

Columns and labels:
[1] = system: Human immunodeficiency virus; assay: Antiviral activity against HIV LAI infected in human MT-2 cells assessed as inhibition of viral growth; type: functional, organism-based; settings: Human immunodeficiency virus 1, LAI, MT2
[2] = target: Human immunodeficiency virus type 1 protease (Human immunodeficiency virus 1, UniProt Q72874); assay: Inhibition of HIV-1 protease using Abz-NF-6 as substrate assessed as inhibition constant measured every 2 mins for 20 mins by fluorescence based […] analysis
[3] = system: Human immunodeficiency virus; assay: Potency index, ratio of test compound IC50 to darunavir IC50 for antiviral activity against HIV LAI infected in human MT-2 cells assessed as inhibition of viral growth; type: functional, MT2

| Ki [2] [nM] | SMILES | IC50 [1] [nM] | Ratio IC50 [3] |
| --- | --- | --- | --- |
| 0.0015 | CC(C)CN(C[C@@H](O)[C@H](Cc1ccccc1)NC(=O)O[C@H]1CO[C@H]2OCC[C@H]21)S(=O)(=O)c1ccc(NC(=O)CN(C)C)cc1 | > 1000 | – |
| 0.0053 | CC(C)CN(C[C@@H](O)[C@H](Cc1ccccc1)NC(=O)O[C@H]1CO[C@H]2OCC[C@H]21)S(=O)(=O)c1ccc(NC(=O)CN[C@H](C)c2ccccc2)cc1 | 39 | – |
| 0.302 | CCN(CC)CC(=O)Nc1ccc(S(=O)(=O)N(CC(C)C)C[C@@H](O)[C@H](Cc2ccccc2)NC(=O)O[C@H]2CO[C@H]3OCC[C@H]32)cc1 | > 1000 | – |
| 310 | CC(C)CN(C[C@@H](O)[C@H](Cc1ccccc1)NC(=O)O[C@H]1CO[C@H]2OCC[C@H]21)S(=O)(=O)c1ccc(NC(=O)CNC(=O)OC(C)(C)C)cc1 | – | – |
| 0.445 | CC(C)CN(C[C@@H](O)[C@H](Cc1ccccc1)NC(=O)O[C@H]1CO[C@H]2OCC[C@H]21)S(=O)(=O)c1ccc(NC(=O)[C@@H](N)C(C)C)cc1 | 25 | – |
| 0.0044 | CC(C)CN(C[C@@H](O)[C@H](Cc1ccccc1)NC(=O)O[C@H]1CO[C@H]2OCC[C@H]21)S(=O)(=O)c1ccc(NC(=O)CCl)cc1 | 32 | – |
| 0.0921 | CC(C)CN(C[C@@H](O)[C@H](Cc1ccccc1)NC(=O)O[C@H]1CO[C@H]2OCC[C@H]21)S(=O)(=O)c1ccc(NC(=O)CN)cc1 | – | – |
| 0.388 | CC(C)CN(C[C@@H](O)[C@H](Cc1ccccc1)NC(=O)O[C@H]1CO[C@H]2OCC[C@H]21)S(=O)(=O)c1ccc(NC(=O)CNC(C)C)cc1 | 31 | – |

Continued, compound first:

| SMILES | Ki [2] [nM] | IC50 [1] [nM] | Ratio IC50 [3] |
| --- | --- | --- | --- |
| CC(C)CN(C[C@@H](O)[C@H](Cc1ccccc1)NC(=O)O[C@H]1CO[C@H]2OCC[C@H]21)S(=O)(=O)c1ccc(N)cc1 | – | 1.6 | – |
| CC(C)CN(C[C@@H](O)[C@H](Cc1ccccc1)NC(=O)O[C@H]1CO[C@H]2OCC[C@H]21)S(=O)(=O)c1ccc(NC(=O)[C@@H](NC(=O)OC(C)(C)C)C(C)C)cc1 | 178 | 540 | – |
| CC(C)CN(C[C@@H](O)[C@H](Cc1ccccc1)NC(=O)O[C@H]1CO[C@H]2OCC[C@H]21)S(=O)(=O)c1ccc(C(N)=O)cc1 | – | 93 | – |
| CC(C)CN(C[C@@H](O)[C@H](Cc1ccccc1)NC(=O)O[C@H]1CO[C@H]2OCC[C@H]21)S(=O)(=O)c1ccc(C(=O)O)cc1 | – | > 1000 | – |
| CC(C)CN(C[C@@H](O)[C@H](Cc1ccccc1)NC(=O)O[C@H]1CO[C@H]2OCC[C@H]21)S(=O)(=O)c1ccc(NC(=O)[C@H](NC(=O)OC(C)(C)C)C(C)C)cc1 | 337 | 430 | – |
| CCNCC(=O)Nc1ccc(S(=O)(=O)N(CC(C)C)C[C@@H](O)[C@H](Cc2ccccc2)NC(=O)O[C@H]2CO[C@H]3OCC[C@H]32)cc1 | 0.0091 | 280 | – |
| CC(=O)Nc1ccc(S(=O)(=O)N(CC(C)C)C[C@@H](O)[C@H](Cc2ccccc2)NC(=O)O[C@H]2CO[C@H]3OCC[C@H]32)cc1 | 0.0006 | 29 | 10 |
